Laboratory results reported in article PMC3677765 (Forensic science international, 2012).

Assays:
[1] = Blood concentrations in mice after inhalation of "Magic Gold" smoke; type: in vivo, C57BL6 mice
[2] = Brain concentrations in mice after inhalation of "Magic Gold" smoke; type: in vivo, C57BL6 mice
[3] = next specimen collected 18 h later (after the 6 h sample); cited from earlier work
[4] = positive samples among 80 subjects (JWH-018 in 9, JWH-073 in 6); cited from earlier work
Post-preparative = type: physicochemical; settings: extracted samples stored in the auto-sampler 72 h at room temperature

Structure (SMILES) | Detection in blood samples ([1]; 20 min and 20 h after exposure) | Detection in brain samples ([2]; 20 min and 20 h after exposure) | Serum detection [3] | Serum concentration (mean) [4] | JWH-073 blood concentration higher than JWH-018 (mean increase) ([1]; 20 min after exposure) | JWH-073 brain concentration higher than JWH-018 (mean increase) ([2]; 20 min after exposure) | Brain concentration (range) ([2]; 20 h post exposure, five mice) | Degradation (auto-sampler stability) (Post-preparative)
CCCCCn1cc(C(=O)c2ccc(Cl)c3ccccc23)c2ccccc21 [JWH-398, 4-chloronaphthalen-1-yl-(1-penty-lindolin-3-yl)methanone] | not detected | not detected |  |  |  |  |  | 
CCCCCn1cc(C(=O)c2cccc3ccccc23)c2ccccc21 [JWH-018, Naphthalen-1-yl-(1-pentylindol-3-yl)methanone] |  |  | undetectable | 1.84 ng/mL |  |  |  | 
CCCCn1cc(C(=O)c2cccc3ccccc23)c2ccccc21 [JWH-073, Naphthalen-1-yl-(1-butylindol-3-yl)methanone] |  |  |  | 0.42 ng/mL | 53% | 84% | not detected | approximately 20%
